Entries after “also recorded” stand apart in the source; their conditions may differ.
Experiments:
[1] = test system: H-RAS^G12V/IκBαM organotypic human tissue; assay: Organotypic human tissue model of RAS-driven neoplastic invasion; format: cell-based
Experimental: (§1) Retroviral Transduction. […] Alternatively transformation was achieved through combined infection with an LTR-driven retrovirus expressing oncogenic ER:H-RAS and a separate LTR-driven retrovirus expressing cyclin-dependent kinase 4 (CDK4). Polybrene was added to a final concentration of 5 ug/mL to cell media during infection. Infections were performed at 37° C. with low-speed centrifugation for 1 hour. Expression of these viral constructs was verified in vitro. […] As a control for a RAS-IκBα bicistronic virus (IIR), we also infected a separate pool of keratinocytes with a LacZ control virus. For dual ER:H-RAS and CDK4 infected cells, forty-eight hours after infection cultures were daily treated with either […] 40 hydroxytamoxifen or an equal volume of ethanol (vehicle).
(§2) Human Tissue Model System. […] Pieces with less hair follicles are preferable. […] Subsequently, the epidermis is peeled off. […] Tissue was grown for five to ten days total. For immunofluorescence analysis, tissue was placed in OCT.
(§3) Immunofluorescence and Invasion index. […] Tissue was counterstained with Hoescht to visualize cell nuclei.
Hum Gene Ther 8, 1659-1665 (1997)).

[2] = test system: normal human organotypic tissue expressing LacZ; assay: Normal organotypic human tissue homeostasis; details: drug daily, same concentrations as in neoplastic tissue (UO126 5 μM)
Description: Human Tissue Model System. Dermis can be ordered from National Disease Research Interchange (NDRI) and New York Firefighter Skin Bank. Tissue is inspected for overall thickness as well as continuity across the spectrum. Pieces with less hair follicles are preferable. This tissue is cultures in a mixture of antibiotics and antimyotics for a period of 10-14 days. Subsequently, the epidermis is peeled off. The devitalized dermis is then ready to be repopulated with 2-4×10^5 neonatal human fibroblasts by low speed centrifugation for 1 hour. Tissue is raised to the air-liquid interface and seeded with 0.5-1×10^6 genetically modified human keratinocytes to stimulate differentiation and stratification (Ridky, T. W., et al. Invasive three-dimensional organotypic neoplasia from multiple normal human epithelia. Nat Med 16, 1450-1456 (2010); PrunieRAS, M., et al. Methods for cultivation of keratinocytes with an air-liquid interface. J Invest Dermatol 81, 28-33 (1983)). Tissue was treated with drug/peptide as indicated by application directly into culture media daily. Tissue was grown for five to ten days total. For immunofluorescence analysis, tissue was placed in OCT. For histological analysis, tissue was fixed in 10% formalin (Sigma-Aldrich) and embedded in paraffin.
Immunofluorescence and Invasion index. OCT embedded tissue samples were cut into 7 um sections then fixed and permeabilized by incubation in ice-cold methanol or acetone for 10 minutes at −20° C. followed by blocking in 10% horse serum in PBS for 1 hour. Tissue sections were then incubated with primary antibodies, followed by Alexafluor-488 conjugated or Alexafluor-555 conjugated, goat anti-mouse or goat anti-rabbit secondary antibodies (Molecular Probes). The following antibodies were used: rabbit anti-keratin-5 (1:4000, Covance, PRB-160P), mouse anti-collagen VII (1:200, Millipore, MAB2500), anti-mouse Keratin 10 (1:200, Neomarkers, MS611P), anti-mouse Transglutaminase (1:100, Biomedical Technology, BT-621), anti-rabbit Loricrin (1:200, Covance, PRB-145P), and anti-rabbit Ki67 (1:100, Neomarkers, SP6). Tissue was counterstained with Hoescht to visualize cell nuclei. Microscopy was performed on an Olympus FV1000 scanning laser confocal microscope. For each sample, 30 sequential Z-sections were taken in 3 channels (DAPI—405/450 nm excitation/emission, FITC-488/512 ex/em and TRITC-540/570 ex/em) allowing for subsequent three-dimensional reconstruction analysis. […] Relative invasion index was quantified as number of keratin-positive epithelial cells below the collagen-positive basement membrane zone (BMZ) measured 10 times across 3 independent 20× fields of view. Ki67 quantification was quantified as number of Ki67-positive epithelial cells measured 10 times across 3 independent 20× fields of view. […]

ERK = assay: Protein expression analysis of phosphorylated and total ERK (immunoblot / immunohistochemistry); format: cell-based, human; details: Ras-driven organotypic neoplasia, peptide 10 uM daily
Experimental: Protein Expression Analysis. Cells were lysed in 20 mM Tris (pH 7.5), 150 mM NaCl, 1 mM EDTA, and 1% NP40 supplemented with complete mini EDTA-free protease inhibitors (Roche) and phosphatase inhibitor cocktails I and II (Sigma-Aldrich). 5-20 ug of lysate were loaded per lane, subjected to 10-12% SDS-PAGE or 16% Tricine electrophoresus (Invitrogen NuPage), and subsequently transfer to PVDF membranes via semidry transfer. Primary antibody incubations were performed overnight at 4° C. Secondary antibody incubations were for 1 hour at room temperature. The following antibodies were used: rabbit anti-ERK1/2 (1:1000, Cell Signaling, 9201), rabbit anti-phosphorylated ERK1/2 (1:1000, Thr202/Tyr204, Cell Signaling, 9201), mouse anti-IQGAP1 (1:400, Upstate, 05-504), rabbit anti-RAS (1:500, Santa Cruz, sc-520), rabbit anti-IκBa (1:500, Cell Signaling, 9242), Rabbit anti-β-Galactosidase (1:1000, Cappel, 55976), rabbit anti myc (1:500, Abcam, ab9106), mouse anti-actin (1:10,000, Sigma, 5316), donkey anti-rabbit IgG conjugated to horseradish peroxidase (HRP)(1:20,000, Amersham Biosciences), and donkey anti-mouse IgG conjugated to horseradish peroxidase (HRP)(1:20,000, Amersham Biosciences).

[3] = test system: PLX-4032 resistant BRAFV600E melanoma lines (SK-MeI-28, A375, SK-MeI-5); assay: Proliferation of PLX-4032 resistant melanoma lines; format: cell-based, human; details: 5 μM R8-myc-tagged WW peptide and DMSO
[4] = test system: PLX-4032 sensitive BRAFV600E melanoma cell lines (SK-MeI-28, A375, SK-MeI-5); assay: Proliferation of PLX-4032 sensitive melanoma lines with peptide; format: cell-based, human; details: increasing doses of R8-myc-tagged WW peptide
Experimental: (A) Proliferation of PLX-4032 sensitive BRAFV600E melanoma cell lines (P1, SK-MeI-28; P2, A375; and P3, SK-MeI-5) at increasing doses of R8-myc-tagged WW peptide. (B) Proliferation assays of PLX-4032 resistant lines (R1, SK-MeI-28; R2, A375; and R3, SK-MeI-5) treated with 5 μM R8-myc-tagged SCR peptide and DMSO (control), 5 μM SCR peptide and 5 μM PLX-4032 (PLX-4032), or 5 μM R8-myc-tagged WW peptide and DMSO (5 μM WW).
Cell Viability Assay. Genetically modified adherent cancer cell lines were seeded in equivalent, low density cultures in duplicate to 24-well plates. 24 hours post-seeding, media was removed and replaced with 500 uL of a 5:1 mixture of cell media and cell titre blue reagent (Promega). Cultures were incubated with this mixture for 2 hours at 37° C. in the dark. Fluorescence ([…]) for 100 uL in triplicates of each sample was recorded. Incubation with cell titre blue reagent and fluorescent readings were repeated every two days for a total of twelve days. Values plotted correspond to readings taken while control samples are still growing exponentially.

[5] = test system: IQGAP1-Erk1/2 interaction; assay: Immunoprecipitation of endogenous IQGAP1 protein and associated Erk; format: cell-based, human; details: 10 μM peptide daily for six days, SK-MeI-28 cells
Experimental: (A) Immunoprecipitation of endogenous IQGAP1 protein and associated Erk from primary human cells (normal) or BRAFV600E mutant SK-MeI-28 melanoma cells (cancer) following daily treatment with 10 μM R8-myc-tagged SCR or WW peptide for six days. (B) Relative Erk levels as a function of immunoprecipitated IQGAP1 as in (d). n=3, ±SD.
Immunoprecipitation of endogenous IQGAP1 protein and associated Erk. Cells were cross-linked with 1 mL of 20 mM DSP (Thermo Scientific) for 1 hour at 4° C. and the reaction was stopped with washes in 50 mM Tris. Cells were lysed in 20 mM Tris, 150 mM NaCl, 0.2% NP40, 10% Glycerol with 0.5 mM dTT and protease/phosphatase inhibitors added directly before use (buffer 1) for 1 hour at 4° C., but not pelleted. 1 mg lysate in 500 uL was combined with 5 ug of mouse anti-IQGAP1 antibody (Millipore 05-504) in buffer 1 and rocked overnight at 4° C. 30 uL of protein G sepharose 4 fast flow (GE Healthcare) were washed in buffer 1 and combined with lysate for 1 hour at 4° C. Supernatent was removed to check for immunodepletion. Beads were washed 3 times in 20 mM Tris, 150 mM NaCl, 1% Triton X-100 with protease/phosphatase inhibitors added directly before use (buffer 2). Immunoprecipitate was eluted from beads in 200 uL of 4×LDS sample buffer in buffer 1 plus 5% BME. […]

[6] = test system: SK-MeI-28 melanoma xenograft tumors; assay: Systemic delivery of WW peptide in vivo by osmotic pump; details: subcutaneous osmotic pump, 19 mg/kg/day for 14 days
Experimental: (A) Established xenograft tumors derived from BRAFV600E mutant SK-MeI-28 melanoma cancer cells were subcutaneously implanted with osmotic pumps (Alzet model 2002) (indicated by black arrows) which released 19 mg/kg/day of R8-myc-tagged Scrambled or WW peptide for 14 days (indicated by hash bars) with tumor growth quantified by mean average radiance (n=3 mice per group). […] (D) Representative data of tumor growth as quantified by tumor volume±SEM from d28 and d43.
(§4) Systemic delivery of WW peptide in vivo. 0.5×10^6 luciferase-expressing SK-MeI-28 were injected into the subcutaneous space of hairless immunodeficient 6-8 week old SCID mice (SHO stock, Charles Rovers). Mouse xenografts were allowed to grow untreated for 1 week. Subsequently, tumors were measured and randomized two groups of similar tumor size. Each group was subcutaneously implanted with osmotic pumps (Alzet, model 2002) releasing 0.5 uL of R8-myc-tagged scrambled or WW peptide per hour for 14 days.
as §4, with “To test the efficacy of systemic” for “Systemic”, “vivo,” for “vivo.”, “of” for “of R8-myc-tagged”

[7] = test system: Ras-driven organotypic human epidermal neoplasia; assay: Ras-driven organotypic human epidermal neoplasia (ER:H-RAS/CDK4, 4OHT) invasion; format: cell-based; details: peptide 10 uM daily in media vs scrambled control peptide
Experimental: as §1, §2, §3
Exogenous delivery of the WW domain to human tissue. […] Briefly stromal primary human fibroblasts were seeded onto devitalized human dermis and subsequently elevated to a sterilized annular dermal support (ADS) tissue culture insert device (Ridky, supra). […]

[8] = test system: normal human organotypic tissue expressing LacZ
IQGAP1 = assay: qRT-PCR validation of IQGAP1 knockdown; format: cell-based, human; details: two, four and six days post-nucleofection
Description: siRNA-mediated knockdown. For each ERK/MAPK scaffold, siRNA oligos were designed and synthesized by Dharmacon. Subsequently, 1×10^6 early-passage neonatal keratinocytes were electroporated with 2 nMol of each siRNA oligo or 1 nMol each of two siRNA oligos using Amaxa nucleofection reagents and according to the manufacturer's protocol. A nonfunctional siRNA served as a negative control and ERK1/2 siRNA served as positive controls. The following siRNA oligos were used for this study (sense/antisense):
shRNA-mediated knockdown. The vectors for pGIPZ shRNA targeting IQGAP1 were designed and purchased through Open Biosystems catalog number V2LHS-86779 for shIQGAP1.E, V2LHS-86781 for shIQGAP1.F, and V2LHS-259635 for shIQGAP1.G. Cells were transduced as above with 1000× puromycin (1 mg/mL) selection applied daily. Transduction of cells was visualized under a fluorescent microscope
qRT-PCR Expression Analysis. At indicated time points, RNA was harvested from cells via treatment with TRIZOL by the standard Invitrogen protocol. Relative mRNA expression was determined by qRT-PCR analysis using a Stratagene Mx3000P thermocycler and Brilliant II SYBR green QRT-PCR 1-step master mix reagents. Primer concentration was 200 nM with 100 ng RNA. Samples were run in triplicate and normalized to levels of GAPDH mRNA for each reaction. The following primers were used for this study: […]

[9] = drug daily in culture media: UO126 5 μM, SB0203580 2.6 μM, PD98059 18.7 μM, LY294002 5 μM
[10] = siRNA-nucleofected keratinocytes

## COc1cccc(-c2cc(=O)c3ccccc3o2)c1N [PD098059]
[1]; [9]
  neoplastic invasion: did not have an abrogating effect on neoplastic invasion; also recorded: did not block invasion

## C[S+]([O-])c1ccc(-c2nc(-c3ccncc3)c(-c3ccc(F)cc3)[nH]2)cc1 (centres unmarked) [SB203580]
[1]; [9]
  neoplastic invasion: did not completely block invasion; also recorded: did not see effects

## N#CC(=C(/N)Sc1ccccc1N)/C(C#N)=C(/N)Sc1ccccc1N [UO126]
[2]
  normal tissue homeostasis: without affecting normal tissue homeostasis

## WW peptide: 32 amino acid IQGAP1 WW domain peptide, myc-tagged, made cell penetrating by adding eight arginine residues (RRRRRRRREQKLISEEDLDNNSKWVKHWVKGGYYYYHNLETQEGGWDEPP)
ERK
  pErk1/2 levels: diminished pErk1/2 levels
[3]
  growth of PLX-4032-resistant melanoma cells: inhibited growth of PLX-4032-resistant melanoma cells similarly to PLX-4032-sensitive parental cells; also recorded: bypasses resistance to B-Raf inhibitors
[4]
  proliferation of BRAF mutant melanoma cells: inhibited proliferation of BRAF mutant melanoma cells in a dose-dependent manner
[5]
  total Erk1/2 bound to endogenous IQGAP1: significantly decreased
[6]
  toxic effects to animals: without adverse toxic effects to animals
  weight gain of mice: no negative effects on mouse growth
[6]; 19 mg/kg/day
  tumorigenesis / tumor growth: diminishes tumorigenesis; also recorded: can inhibit tumorigenesis
[7]
  BMZ degradation: abrogated BMZ degradation
  neoplastic invasion: abolished neoplastic invasion; also recorded: inhibits neoplastic invasion

## siIQGAP1.A: siRNA to coding sequence of IQGAP1, SEQ ID NO: 11/12 (chain 1 GAACGUGGCUUAUGAGUACUU; chain 2 GUACUCAUAAGCCACGUUCUU; chemistry not given here)
[8]
  normal tissue phenotype: phenotypically normal tissue
[1]; [10]
  neoplastic invasion: no invasion

## siIQGAP1.B: siRNA to 3′ UTR of IQGAP1, SEQ ID NO: 13/14 (chain 1 CCUCUCGCUCUGAUGGGACAUUUGU; chain 2 ACAAAUGUCCCAUCAGAGCGAGAGG; chemistry not given here)
[8]
  normal tissue phenotype: phenotypically normal tissue
IQGAP1
  durability of IQGAP1 knockdown: more durable knockdown
[1]; [10]
  neoplastic invasion: no invasion

## siIQGAP1.C: siRNA to 3′ UTR of IQGAP1, SEQ ID NO: 15/16 (chain 1 CAGCCAUCAUGACAUUUACCAUGAA; chain 2 UUCAUGGUAAAUGUCAUGAUGGCUG; chemistry not given here)
[8]
  normal tissue phenotype: phenotypically normal tissue
IQGAP1
  durability of IQGAP1 knockdown: more durable knockdown
[1]; [10]
  neoplastic invasion: no invasion
